PubChem BioAssay (NCI)
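All cell lines were grown in 96-well plates and treated with compound for 48 hours. GI50 is the concentration that inhibits growth by half. Definition used: TGI = concentration required for complete inhibition of growth.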

How the values were obtained:
Test in all cases: inhibition of tumour cell growth, NCI panel, 48 h
[1] = system: UO-31 renal
[2] = system: SR leukemia
[3] = system: A498 renal
[4] = system: EKVX NSCLC
[5] = system: NCI-H460 lung
[6] = system: SK-OV-3 ovarian
[7] = system: HCT-116 colon
[8] = system: SW-620 colon
[9] = system: PC-3 prostate
[10] = system: BT-549 breast
[11] = system: TK-10 renal
[12] = system: SNB-19 CNS
[13] = system: RPMI-8226 leukemia
[14] = system: OVCAR-3 ovarian
[15] = system: MDA-MB-231 breast
[16] = system: COLO 205 colon
[17] = system: MDA-MB-468 breast
[18] = system: LOX IMVI melanoma
[19] = system: KM12 colon
[20] = system: RXF 393 renal
[21] = system: HCC-2998 colon
[22] = system: NCI-H522 lung
[23] = system: SK-MEL-28 melanoma
[24] = system: SF-268 CNS
[25] = system: M14 melanoma
[26] = system: HCT-15 colon
[27] = system: OVCAR-4 ovarian
[28] = system: SF-539 CNS
[29] = system: UACC-62 melanoma
[30] = system: ACHN renal
[31] = system: SNB-75 CNS
[32] = system: IGROV1 ovarian
[33] = system: NCI/ADR-RES ovarian
[34] = system: SK-MEL-5 melanoma
[35] = system: SF-295 CNS
[36] = system: U251 CNS
[37] = system: HOP-92 NSCLC
[38] = system: DU-145 prostate
[39] = system: SK-MEL-2 melanoma
[40] = system: UACC-257 melanoma
[41] = system: CAKI-1 renal
[42] = system: HS 578T breast
[43] = system: MCF7 breast
[44] = system: T-47D breast
[45] = system: 786-0 renal
[46] = system: NCI-H23 lung
[47] = system: HT29 colon
[48] = system: OVCAR-8 ovarian
[49] = system: MOLT-4 leukemia
[50] = system: K-562 leukemia
[51] = system: HOP-62 NSCLC
[52] = system: OVCAR-5 ovarian
[53] = system: NCI-H226 lung
[54] = system: A549 NSCLC
[55] = system: MDA-MB-435
[56] = system: SN12C renal
[57] = system: MALME-3M melanoma
[58] = system: HL-60(TB) leukemia
[59] = system: CCRF-CEM leukemia

Cc1cc2nc3c4ccccc4n(CCNCCN(C)C)c3nc2cc1C
GI50 [1]: 1.49 µM
TGI [1]: 14.6 µM
GI50 [2]: 2.01 µM
TGI [2]: 5.92 µM
GI50 [3]: 14.5 µM
TGI [3]: 29.2 µM
GI50 [4]: 11.1 µM
TGI [4]: 24.2 µM
GI50 [5]: 3.61 µM
TGI [5]: 13.6 µM
GI50 [6]: 11.7 µM
TGI [6]: 29.4 µM
GI50 [7]: 5.35 µM
TGI [7]: 18.8 µM
GI50 [8]: 3.87 µM
TGI [8]: 16.2 µM
GI50 [9]: 5.23 µM
TGI [9]: 23.2 µM
GI50 [10]: 14.1 µM
TGI [10]: 28 µM
GI50 [11]: 8.06 µM
TGI [11]: 20.8 µM
GI50 [12]: 7.26 µM
TGI [12]: 20 µM
GI50 [13]: 3.36 µM
TGI [13]: 18.3 µM
GI50 [14]: 7.35 µM
TGI [14]: 20.5 µM
GI50 [15]: 6.88 µM
TGI [15]: 21.1 µM
GI50 [16]: 3.98 µM
TGI [16]: 17.3 µM
GI50 [17]: 7.78 µM
TGI [17]: 21.3 µM
GI50 [18]: 3.07 µM
TGI [18]: 15.3 µM
GI50 [19]: 13.2 µM
TGI [19]: 26.9 µM
GI50 [20]: 5.17 µM
TGI [20]: 18.2 µM
GI50 [21]: 5.47 µM
TGI [21]: 19.5 µM
GI50 [22]: 8.38 µM
TGI [22]: 23.5 µM
GI50 [23]: 7.61 µM
TGI [23]: 20.1 µM
GI50 [24]: 9.33 µM
TGI [24]: 23.9 µM
GI50 [25]: 7.43 µM
TGI [25]: 23.3 µM
GI50 [26]: 5.23 µM
TGI [26]: 18.3 µM
GI50 [27]: 4.89 µM
TGI [27]: 19.1 µM
GI50 [28]: 4.96 µM
TGI [28]: 17.4 µM
GI50 [29]: 6.63 µM
TGI [29]: 19.8 µM
GI50 [30]: 4.31 µM
TGI [30]: 17 µM
GI50 [31]: 3.33 µM
TGI [31]: 20.3 µM
GI50 [32]: 4.81 µM
TGI [32]: 18.5 µM
GI50 [33]: 8.46 µM
TGI [33]: 29 µM
GI50 [34]: 12.6 µM
TGI [34]: 25.6 µM
GI50 [35]: 6.48 µM
TGI [35]: 19.6 µM
GI50 [36]: 6.09 µM
TGI [36]: 19.7 µM
GI50 [37]: 3.45 µM
TGI [37]: 22.5 µM
GI50 [38]: 5.69 µM
TGI [38]: 18.1 µM
GI50 [39]: 12.6 µM
TGI [39]: 27.6 µM
GI50 [40]: 1.98 µM
TGI [40]: 5.35 µM
GI50 [41]: 10.8 µM
TGI [41]: 22.7 µM
GI50 [42]: 9.6 µM
TGI [42]: 30.7 µM
GI50 [43]: 3.27 µM
TGI [43]: 14.6 µM
GI50 [44]: 12.2 µM
TGI [44]: 31.2 µM
GI50 [45]: 8.4 µM
TGI [45]: 22.2 µM
GI50 [46]: 11.5 µM
TGI [46]: 26.6 µM
GI50 [47]: 3.84 µM
TGI [47]: 15.5 µM
GI50 [48]: 4.66 µM
TGI [48]: 20.3 µM
GI50 [49]: 4.09 µM
TGI [49]: 15.6 µM
GI50 [50]: 3.35 µM
TGI [50]: 13.7 µM
GI50 [51]: 4.98 µM
TGI [51]: 19.8 µM
GI50 [52]: 6.68 µM
TGI [52]: 19.5 µM
GI50 [53]: 6.13 µM
TGI [53]: 26.5 µM
GI50 [54]: 4.67 µM
TGI [54]: 19.5 µM
GI50 [55]: 5.23 µM
TGI [55]: 17.8 µM
GI50 [56]: 4.63 µM
TGI [56]: 18.5 µM
GI50 [57]: 9.35 µM
TGI [57]: 23.2 µM
GI50 [58]: 5.51 µM
TGI [58]: 20.3 µM
GI50 [59]: 11.5 µM
TGI [59]: 31.7 µM
